The text below walks through data of ChEMBL document CHEMBL1667828, “Synthesis and evaluation of new iRGD peptide analogs for tumor optical imaging” (Bioorg Med Chem Lett, 2011).

The structures appear in SMILES notation. Where a SMILES comes first, the peptide text is derived from it. Bridges are numbered along the chain shown (N, C = ends). The star is where a group is joined. DOTA = O=C(O)CN1CCN(CC(=O)O)CCN(CC(=O)*)CCN(CC(=O)O)CC1

Holding throughout (format): ADME, organism-based, Neoplasm
Series [1] is described as follows: Drug level in tumor of human MDA-MB-435 cell-xenograft athymic nude mouse model at 10 uM, iv after 4 hrs by optical imaging analysis. As to conditions: in vivo; call rule not given here. Background: In xenograft studies the graft and the host belong to different species.
The nature of series [2]: Drug level in tumor of human MDA-MB-435 cell-xenograft athymic nude mouse model at 10 uM, iv after 10 mins by optical imaging analysis. As to conditions: in vivo.
Series [3] is described as follows: Drug level in tumor of human MDA-MB-435 cell-xenograft athymic nude mouse model at 10 uM, iv by PET analysis. The following applies: athymic nude mouse (human MDA-MB-435 xenograft), in vivo.

Consider `CC(=O)N[C@H](CSC1CC(=O)N(CCNC(=O)CCCCC[N+]2=C(/C=C/C3=C(Oc4ccc(S(=O)(=O)[O-])cc4)C(=C/C=C4/N(CCCCS(=O)(=O)[O-])c5ccc(S(=O)(=O)[O-])cc5C4(C)C)/CCC3)C(C)(C)c3cc(S(=O)(=O)[O-])ccc32)C1=O)C(=O)N[C@H]1CSSC[C@@H](C(N)=O)NC(=O)[C@H](CC(=O)O)NC(=O)[C@@H]2CCCN2C(=O)CNC(=O)[C@H](CCCCN)NC(=O)[C@H](CC(=O)O)NC(=O)CNC(=O)[C@H](CCCNC(=N)N)NC1=O.[Na+].[Na+].[Na+]` (stereo not given in full), for which the Drug uptake result in series [1], in series [2] and in series [3] was “Active” each time.
Turning to `CC1(C)C(/C=C/C2=C(Oc3ccc(S(=O)(=O)[O-])cc3)C(=C/C=C3/N(CCCCS(=O)(=O)[O-])c4ccc(S(=O)(=O)[O-])cc4C3(C)C)/CCC2)=[N+](CCCCCC(=O)NCCN2C(=O)CC(SC[C@@H](NC(=O)CN3CCN(CC(=O)O)CCN(CC(=O)O)CCN(CC(=O)O)CC3)C(=O)N[C@H]3CSSC[C@@H](C(N)=O)NC(=O)[C@H](CC(=O)O)NC(=O)[C@@H]4CCCN4C(=O)CNC(=O)[C@H](CCCCN)NC(=O)[C@H](CC(=O)O)NC(=O)CNC(=O)[C@H](CCCNC(=N)N)NC3=O)C2=O)c2ccc(S(=O)(=O)[O-])cc21.[Na+].[Na+].[Na+]` (stereo not given in full), the Drug uptake entry in series [1], in series [2] and in series [3] was “Active” in each case.
With `CC(=O)N[C@@H](CS)C(=O)N[C@H]1CSSC[C@@H](C(N)=O)NC(=O)[C@H](CC(=O)O)NC(=O)[C@@H]2CCCN2C(=O)CNC(=O)[C@H](CCCCN)NC(=O)[C@H](CC(=O)O)NC(=O)CNC(=O)[C@H](CCCNC(=N)N)NC1=O` (Ac-CCRGDKGPDC-NH2; disulfide 2-10), the Drug uptake entry in series [1] and in series [3] was “Active” throughout.
Consider `N=C(N)NCCC[C@@H]1NC(=O)[C@@H](NC(=O)[C@H](CS)NC(=O)CN2CCN(CC(=O)O)CCN(CC(=O)O)CCN(CC(=O)O)CC2)CSSC[C@@H](C(N)=O)NC(=O)[C@H](CC(=O)O)NC(=O)[C@@H]2CCCN2C(=O)CNC(=O)[C@H](CCCCN)NC(=O)[C@H](CC(=O)O)NC(=O)CNC1=O` ({DOTA}-CCRGDKGPDC-NH2; disulfide 2-10), for which the Drug uptake result in series [1] and in series [3] was “Active” throughout.
